Patent publication US20090178158A1, “RESISTANCE AGAINST PARASITIC WEEDS” (Plant Research International B.V., priority 2005, published 2009)
“And” between values parts separate entries of the source, which are not always exact repeats. Identical values can stand only once. “Also recorded” adds a separate entry of the source.

Key:
Striga hermonthica seeds [1] = test: Germination bioassay: S. hermonthica seeds with root exudates of treated host seedlings (maize, cowpea, sorghum); format: in vivo; details: for maize root exudate-induced S. hermonthica germination: maize W22 grown 5 days with 100 μM fosmidomycin or 10 μM mevastatin, control 42±2%
[2] = tested on: carotenoid composition of shoots and roots of maize seedlings; test: Carotenoid analysis (HPLC) of shoots and roots of treated maize seedlings; format: in vivo
maize seedlings = test: Phenotype of inhibitor-treated maize seedlings; details: 10 μM mevastatin, 100 μM fosmidomycin, 25 μM fluridone, 200 μM amitrole (21° C.), 0.1-1 mM naproxen, 1 mM sodium tungstate, 0.02-0.2 mM abscisic acid
Orobanche crenata seeds = format: in vivo; details: 10 μM fluridone, versus control, FIG. 3F
Striga hermonthica seeds [3] = format: in vivo
[4] = Roots of 10-day old maize seedlings, 10 μM fluridone, 1 mM naproxen, 0.1 mM sodium tungstate, 0.02 mM abscisic acid, n.d. = below detection limit
[5] = Shoots of 10-day old maize seedlings, 10 μM fluridone, 1 mM naproxen, 0.1 mM sodium tungstate, 0.02 mM abscisic acid, n.d. = below detection limit
[6] = maize shoots, versus control (Table 1)

Compound: CC1=C[C@H](O/C=C2/C(=O)O[C@@H]3c4ccccc4C[C@H]23)OC1=O [GR24]
- germination of S. hermonthica induced by GR24 alone (Striga hermonthica seeds [1]; suboptimal concentration of GR24 (0.01 mg.L^−1, FIG. 3E)): 48±1%

Compound: COc1ccc2cc([C@H](C)C(=O)[O-])ccc2c1.[Na+] [naproxen, (S)-6-methoxy-α-methyl-2-naphthaleneacetic acid sodium salt]
- germination of S. hermonthica seeds (Striga hermonthica seeds [1]; in vivo, sodium salt): 20±1% and 15±2%
- carotenoid accumulation in shoots (β-carotene, violaxanthin, neoxanthin, lutein) ([2]; in vivo): decreased accumulation
- concentration of violaxanthin higher than in control roots ([2]; in vivo): about 3 fold
- concentration of β-carotene higher than in control roots ([2]; in vivo): 2 fold
- lutein, carotenoid content ([2]; in vivo): 68.58 μg · g^−1 fwt
- neoxanthin, carotenoid content ([2]; in vivo): 111.81 μg · g^−1 fwt

Compound: O=CN(O)CCCP(=O)(O)O [fosmidomycin]
- morphology / appearance of treated seedlings (maize seedlings): slightly pale-yellow leaves
- maize root exudate-induced S. hermonthica germination (Striga hermonthica seeds [1]; FIG. 3A): 37±2%

Compound: CC[C@H](C)C(=O)O[C@H]1CCC=C2C=C[C@H](C)[C@H](CC[C@@H]3C[C@@H](O)CC(=O)O3)[C@H]21 [mevastatin]
- maize root exudate-induced S. hermonthica germination (Striga hermonthica seeds [1]; FIG. 3A): 33±3%

Compound: CC1=CC(=O)CC(C)(C)C1(O)/C=C/C(C)=C\C(=O)O (racemic) [abscisic acid, (±)-abscisic acid]
- morphology / appearance of treated seedlings (maize seedlings): slightly thicker and more brittle
- germination of S. hermonthica induced by root exudates of treated maize (Striga hermonthica seeds [1]; 0.02 or 0.2 mM abscisic acid, without/with 10 μM fluridone, FIG. 3D): very low germination; also recorded: strongly reduced
- violaxanthin, carotenoid content [2, 4]: 0.07 μg · g^−1 fwt
- β-carotene, carotenoid content [2, 4]: 0.01 μg · g^−1 fwt
- lutein, carotenoid content [2, 5]: 73.01 μg · g^−1 fwt
- neoxanthin, carotenoid content [2, 5]: 115.29 μg · g^−1 fwt
- violaxanthin, carotenoid content [2, 5]: 50.84 μg · g^−1 fwt
- β-carotene, carotenoid content [2, 5]: 47.35 μg · g^−1 fwt
- β-carotene concentration lower than in control roots ([2]; abscisic acid treated maize roots (0.02 mM, Table 1)): 50% and ~65%
- carotenoid accumulation in shoots (β-carotene, violaxanthin, neoxanthin, lutein) [2, 6]: decreased accumulation

Compound: Nc1nc[nH]n1 [amitrole, 3-amino-1,2,4-triazole]
- morphology / appearance of treated seedlings (maize seedlings): yellow-green phenotype
- germination of S. hermonthica induced by root exudates of treated maize (Striga hermonthica seeds [1]; maize Dent, 200 μM amitrole, grown at 21° C., versus control, FIG. 3C): lower germination

Compound: [Na+].[Na+].[O]=[W](=[O])([O-])[O-] [sodium tungstate]
- effect on root exudate induced S. hermonthica germination (Striga hermonthica seeds [1]; maize Dent, 0.1 mM and 1 mM sodium tungstate, FIG. 3D): did not affect germination; also recorded: did not have an effect
- violaxanthin, carotenoid content [2, 4]: 0.22 μg · g^−1 fwt
- β-carotene, carotenoid content [2, 4]: 0.03 μg · g^−1 fwt
- lutein, carotenoid content [2, 5]: 83.94 μg · g^−1 fwt
- neoxanthin, carotenoid content [2, 5]: 147.58 μg · g^−1 fwt
- violaxanthin, carotenoid content [2, 5]: 72.19 μg · g^−1 fwt
- β-carotene, carotenoid content [2, 5]: 64.29 μg · g^−1 fwt
- concentration of violaxanthin higher than in control roots ([2]; maize roots, 1 mM naproxen, 0.1 mM sodium tungstate (Table 1)): 2 fold
- carotenoid accumulation in shoots (β-carotene, violaxanthin, neoxanthin, lutein) [2, 6]: did not affect carotenoid accumulation

Compound: fluridone
- germination of O. crenata seeds with fluridone-treated cowpea root exudate (Orobanche crenata seeds): lower than that induced by the control; also recorded: decreased this germination by about the same percentage as for S. hermonthica
- effect on the attachment phase of Striga (Striga hermonthica seeds [3]; control experiments with GR24 inducing full germination (data not shown)): not affecting the attachment phase
- number of germinated/attached seeds/tubercles of Striga (Striga hermonthica seeds [3]; rice, fluridone sprayed to the leaves on 3 consecutive days, even at 0.001 and 0.01 μM, FIG. 7B): strong, significant reduction
- number of germinated/attached Striga seeds (Striga hermonthica seeds [3]; rice, irrigation once with 100 mL of 0.1 μM fluridone, scored after 6 weeks, FIG. 7A): significantly reduced
- germination of S. hermonthica induced by root exudates of treated maize (Striga hermonthica seeds [1]; 10 μM fluridone, dim light, FIG. 3B): negligible
- germination of S. hermonthica induced by root exudates of treated maize (Striga hermonthica seeds [1]; 10 μM fluridone, normal light, control 13±1%, FIG. 3B): virtually no germination
- germination of S. hermonthica induced by fluridone-treated cowpea root exudates with GR24 (Striga hermonthica seeds [1]; 10 μM fluridone-treated cowpea exudate plus 0.01 mg.L^−1 GR24, FIG. 3E): 53±3%
- germination of S. hermonthica seeds induced by cowpea root exudates (Striga hermonthica seeds [1]; cowpea watered with 10 μM fluridone for 5 days, non-treated 49±2%, FIG. 3E): 11±3%
- germination induced by root exudates lower than for control maize (Striga hermonthica seeds [1]; maize W22, 25 μM fluridone, 5 days, FIG. 3A): about 80%
- sorghum root exudate induced S. hermonthica germination (Striga hermonthica seeds [1]; sorghum, 4 μM fluridone, FIG. 3G): completely blocked
- phytoene in treated roots ([2]; fluridone treated maize roots): phytoene accumulated
- phytoene in treated shoots ([2]; shoot of fluridone treated maize plants): phytoene accumulated
